Assay in all cases: inhibition of tumour cell growth, NCI panel, 48 h
Experiment [1] deals with SNB-75 CNS.
Experiment [2] has as its system HL-60(TB) leukemia.
For experiment [3], the system named is TK-10 renal.
In experiment [4] the test system is MDA-MB-435.
The subject of experiment [5] is IGROV1 ovarian.
Experiment [6] concerns SNB-19 CNS.
For experiment [7], the system named is HOP-62 NSCLC.
Experiment [8] relates to MOLT-4 leukemia.
Experiment [9] relates to BT-549 breast.
The subject of experiment [10] is K-562 leukemia.
The subject of experiment [11] is HCT-116 colon.
The test system of experiment [12] is UO-31 renal.

Data on 24 compounds can be found in PubChem BioAssay (NCI).

Molecules are shown by their SMILES.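 Growth conditions: 96-well plates. Treatment: test compound, 48 hours, 5 concentrations. Analysis: linear interpolation between bracketing concentrations; unreached endpoints set to highest concentration. TGI denotes the concentration required for complete inhibition of growth.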

Consider `Cc1nn(C(=O)c2ccncc2)c2c1C(c1cccc([N+](=O)[O-])c1)SC(N)=N2` (stereo unspecified), for which the TGI in experiment [1], in [2], in experiment [3], in experiment [4], in experiment [5] and in experiment [6] was more than 10 µM throughout. Moreover, the TGI in experiment [7], in experiment [8], in experiment [9], in experiment [10] and in experiment [11] was more than 10 µM in each case.
As for `COC1=CC(=O)c2c(O)c3c(c(O)c2C1=O)C[C@](C)(O)C[C@@H]3O`, the TGI was 28 µM in experiment [1]; 7.91 µM in experiment [2]; 64.3 µM in experiment [3]; 3.34 µM in experiment [4]; 26.9 µM in experiment [12]; 17.2 µM in experiment [5]. In addition, the TGI in experiment [6] was 14.7 µM; in [7], 19.7 µM; in experiment [8], 31.4 µM; in experiment [9], 22.5 µM; in experiment [10] it was 19.4 µM; in experiment [11], 8.94 µM.
Consider `CN(C)Cc1cc(C(=O)/C=C/c2cccc(Cl)c2)cc(CN(C)C)c1O`, for which the TGI in experiment [1] turned out to be 6.43 µM; in [2] it was 4.58 µM; in [3] it was 22 µM; in [4] it was 12.6 µM; in experiment [12], 19.5 µM; in [5] it was 14.9 µM. The TGI in experiment [6] amounted to 69.9 µM; in experiment [7] it was 13.7 µM; in experiment [8] it was 14.1 µM; in experiment [9] it was 25.8 µM; in experiment [10], 11.4 µM; in experiment [11], 13.3 µM.
On to `c1csc(-c2csc(-c3ccsc3)c2)c1`, for which the TGI in experiment [1], in [2], in experiment [3], in experiment [4], in experiment [12] and in experiment [5] was more than 100 µM each time. Besides, the TGI in [6], in [7], in experiment [8], in experiment [9], in experiment [10] and in experiment [11] was more than 100 µM in each case.
Regarding `CSc1ncc2c(n1)-c1ccccc1OC2NC(C)(C)C` (stereo unspecified), the TGI was 88.1 µM in [1]; more than 100 µM in experiment [2]; more than 100 µM in [3]; more than 100 µM in experiment [4]; more than 100 µM in experiment [12]; more than 100 µM in [6]. The TGI in [7], in [8], in experiment [9], in [10] and in experiment [11] was more than 100 µM each time.
`N#CC1(c2ccccc2)CCN(C2(c3ccccc3)CCCCC2)CC1`: the TGI in experiment [1], in [2], in [3], in [4], in [12] and in [5] was more than 100 µM throughout. In addition, the TGI in [6], in [7], in experiment [8], in experiment [9], in experiment [10] and in experiment [11] was more than 100 µM in each case.
As for `COc1cc([C@H]2Oc3c(OC)cc(CCCO)cc3[C@@H]2CO)ccc1O`, the TGI in experiment [1], in experiment [2], in [3], in experiment [4], in [12] and in experiment [5] was more than 100 µM in each case. Besides, the TGI in [6], in [7], in [8], in [9], in [10] and in experiment [11] was more than 100 µM each time.
Turning to `CNC(=S)N/N=C(\C)c1nc2ncccc2[nH]1`, the TGI is more than 100 µM in experiment [1]; 52.8 µM in [2]; more than 96.1 µM in experiment [3]; more than 100 µM in experiment [4]; 40.6 µM in [12]; more than 100 µM in experiment [5]. The TGI in experiment [6] was more than 100 µM; in experiment [7] it was more than 100 µM; in experiment [8] it was more than 100 µM; in [9], 99.5 µM; in [10], more than 100 µM; in experiment [11], more than 100 µM.
As for `O=S1(=O)C(c2ccccc2)=C(O)c2ccccc21`, the TGI in experiment [1], in [2], in [3], in experiment [4], in experiment [12] and in experiment [5] was more than 100 µM in each case. Further, the TGI in experiment [6], in [7], in experiment [8], in experiment [9], in experiment [10] and in experiment [11] was more than 100 µM each time.
As for `Cc1ccc(N=C2SC(c3ccc(C)cc3)(c3ccc(C)cc3)c3ccccc32)cc1`, the TGI in [1], in [2], in experiment [3], in experiment [4], in experiment [12] and in experiment [5] was more than 100 µM each time. Further, the TGI in experiment [6], in experiment [7], in [8], in experiment [9], in experiment [10] and in [11] was more than 100 µM throughout.
For `CC(NNC(=O)c1ccncc1)c1ccc(Cl)c(Cl)c1` (stereo unspecified), the TGI in experiment [1], in [2], in experiment [3], in experiment [4], in [12] and in [5] was more than 100 µM in each case. Also, the TGI in experiment [6], in experiment [7], in [8], in experiment [9], in experiment [10] and in experiment [11] was more than 100 µM throughout.
As to `CC(=O)C12C[C@](C#N)(N3CCCCCC3)C1C=Cc1ccccc12` (stereo partly specified), the TGI in experiment [1], in experiment [2], in experiment [3], in [4], in experiment [12] and in experiment [5] was more than 100 µM throughout. Moreover, the TGI in experiment [6], in [7], in [8], in [9], in experiment [10] and in [11] was more than 100 µM in each case.
For the compound `COc1cc(/C=C2\Cc3cc(OC)c(OC)cc3C2=O)cc(OC)c1`, the TGI in experiment [1], in experiment [2], in [3], in [4], in [12] and in experiment [5] was more than 100 µM in each case. Besides, the TGI in experiment [6] was more than 100 µM; in [7], more than 80.1 µM; in experiment [8], more than 100 µM; in experiment [9], 69.3 µM; in experiment [10], more than 100 µM; in experiment [11] it was more than 52.2 µM.
Turning to `CCN1CCCC(Nc2cc(C)nc(/N=C(/N)Nc3ccc(Cl)c(Cl)c3)n2)C1` (stereo unspecified), the TGI in [1] was 2.71 µM; in [2], 1.33 µM; in [3], 3.22 µM; in experiment [4] it was 2.89 µM; in experiment [12], 2.18 µM; in experiment [5] it was 3.06 µM. For the same compound, the TGI in experiment [6] stood at 5.59 µM; in experiment [7], 2.88 µM; in experiment [8], 2.42 µM; in experiment [9], 3.29 µM; in experiment [10], 0.558 µM; in experiment [11], 2.76 µM.
Turning to `COc1ccc(/C(=N/Nc2nc3ccccc3[nH]2)C(=O)O)cc1`, the TGI in experiment [1], in experiment [2], in experiment [3], in [4], in [12] and in experiment [5] was more than 100 µM each time. The TGI in experiment [6], in experiment [7], in [8], in experiment [9], in experiment [10] and in [11] was more than 100 µM throughout.
With `CCOC(=O)/C(C#N)=C(/NNc1ccccc1)c1ccncc1C(=O)O`, the TGI in experiment [1], in experiment [2], in experiment [3], in experiment [4], in experiment [12] and in experiment [5] was more than 100 µM each time. Further, the TGI in experiment [6], in [7], in experiment [8], in experiment [9], in experiment [10] and in experiment [11] was more than 100 µM each time.
As to `ONC1=Nc2ccccc2OCc2cc(Br)c(Br)cc2COc2ccccc2N=C1NO`, the TGI in experiment [1] is more than 54.7 µM; in [2] it was 25 µM; in [3] it was more than 59.6 µM; in [4], more than 54.3 µM; in [12], more than 54.4 µM; in [5] it was more than 37.7 µM. The TGI in [6] is 24.2 µM; in experiment [7], 38.9 µM; in experiment [8], more than 31.3 µM; in [9] it was 42.5 µM; in experiment [10], more than 44.6 µM; in experiment [11] it was 32.9 µM.
Take `CCOC(=O)C(NC(=O)CC)(Nc1ccc(S(=O)(=O)Nc2nc(C)cc(C)n2)cc1)C(F)(F)F` (stereo unspecified): the TGI in experiment [1], in [2], in experiment [3], in [4], in [12] and in experiment [5] was more than 100 µM each time. For the same compound, the TGI in experiment [6], in [7], in experiment [8], in experiment [9], in experiment [10] and in experiment [11] was more than 100 µM in each case.
Take `O=C(N/N=C/c1ccc(Cl)cc1)c1cc(I)cc(I)c1O`: the TGI in [1], in [2], in experiment [3], in experiment [4], in [12] and in experiment [5] was more than 100 µM throughout. Further, the TGI in experiment [6], in experiment [7], in experiment [8], in experiment [9], in experiment [10] and in experiment [11] was more than 100 µM throughout.
For `CC1(C)CCCCCCCCCC(C)(CCCCCCCCCCCCO)C1=O` (stereo unspecified), the TGI in experiment [1] was 29.7 µM; in experiment [2], 38.3 µM; in experiment [3], 31.6 µM; in [4], 33 µM; in [12] it was 32.1 µM; in [5], 33.7 µM. Further, the TGI in experiment [6] is 26.1 µM; in experiment [7], 47.5 µM; in experiment [8] it was 76.7 µM; in experiment [9], 30.4 µM; in experiment [10], 54.3 µM; in experiment [11], 31.7 µM.
With `COc1cc(/C=N\NC(=O)C[N+](C)(C)C)cc(OC)c1OC`, the TGI in experiment [1], in experiment [2], in experiment [3], in experiment [4], in experiment [5] and in [6] was more than 10 µM throughout. Besides, the TGI in experiment [7], in [8], in experiment [9], in experiment [10] and in experiment [11] was more than 10 µM in each case.
Consider `Cc1nn(C)c2nc3ccc(Cl)cc3c(-c3ccccc3)c12`, for which the TGI in experiment [1], in [2], in experiment [4], in [12], in experiment [6] and in experiment [7] was more than 100 µM in each case. In addition, the TGI in experiment [8], in experiment [9], in [10] and in experiment [11] was more than 100 µM each time.
Regarding `CCCCCn1c(=O)c2c(=O)[nH][nH]c2c2ccccc21`, the TGI in experiment [1], in experiment [2], in experiment [3], in experiment [4], in experiment [12] and in experiment [5] was more than 100 µM each time. Also, the TGI in experiment [7], in [8], in [9], in [10] and in [11] was more than 100 µM each time.
As for `O/N=C1/C2CC3CC1(c1ccccc1)CC(/C3=N/O)/C2=N\O` (stereo unspecified), the TGI in [1], in experiment [2], in experiment [3], in [4], in experiment [12] and in experiment [6] was more than 100 µM each time. Moreover, the TGI in experiment [7], in experiment [8], in experiment [9], in [10] and in experiment [11] was more than 100 µM each time.
